Experimental data from US11667637B2, “Fused imidazo-piperidine JAK inhibitors” (THERAVANCE BIOPHARMA R&D IP, LLC, priority 2017, dated 2023).

Assays:
[1] = tested on: IL-6 stimulated STAT3 phosphorylation in CD3+ T cells; assay: Inhibition of IL-6 stimulated pSTAT3 in CD3+ T cells; type: cell-based, human; settings: statement in words
Description: Assay 10: Cellular JAK Potency Assay: Inhibition of IL-6 Stimulated pSTAT3 in CD3+ T Cells
A protocol analogous to that of Assay 9 was used to determine the potency of the test compound for inhibition of interleukin-6 (IL-6) stimulated STAT3 phosphorylation. An Alexa Fluor 647 conjugated anti-pSTAT3 antibody (pY705, Clone 4/P, BD Biosciences) was used to detect STAT3 phosphorylation.

[2] = tested on: IL-5 mediated survival of human eosinophils; assay: IL-5 mediated eosinophil survival assay; type: cell-based; settings: statement in words
Procedure: Assay 6: IL-5 Mediated Eosinophil Survival Assay
The potency of the test compound for IL-5 mediated eosinophil survival was measured in human eosinophils isolated from human whole blood (AllCells). Because IL-5 signals through JAK, this assay provides a measure of JAK cellular potency.
Human eosinophils were isolated from fresh human whole blood (AllCells) of healthy donors. Blood was mixed with 4.5% Dextran (Sigma-Aldrich) in a 0.9% sodium chloride solution (Sigma-Aldrich). Red blood cells were left to sediment for 35 minutes. The leukocyte rich upper layer was removed and layered over Ficoll-Paque (GE Healthcare) and centrifuged at 600 g for 30 minutes. The plasma and mononuclear cell layers were removed before the granulocyte layer was lysed with water to remove any contaminating red blood cells. […] Purity was analyzed using a LSRII flow cytometer (BD Biosciences). […]
After cytokine stimulation, cells were centrifuged at 300 g for 5 min and washed twice with cold DPBS (Life Technologies). To access viability and apoptosis, cells were incubated with Propidium Iodide (Thermo Fisher Scientific) and APC Annexin V (BD Biosciences) and analyzed using a LSRII flow cytometer (BD Biosciences). IC50 values were determined from analysis of the viability curves of percent cell viability vs compound concentration. Data are expressed as pIC50 (negative decadic logarithm IC50) values.

Compound	inhibition of IL-6 signaling [1]	inhibition of IL-5 mediated human eosinophil survival [2]
CCc1cc(O)c(F)cc1-c1ccc2c(-c3nc4c([nH]3)CN(C(C)C)[C@H](C(=O)N3CC[C@H](N(C)C)C3)C4)n[nH]c2c1 [Example 3]	inhibit IL-6 signaling	
CCCN1Cc2[nH]c(-c3n[nH]c4cc(-c5cc(F)c(O)cc5CC)ccc34)nc2C[C@H]1C(=O)N1C[C@@H]2C[C@H]1CN2C [Example 1, ((S)-2-(6-(2-ethyl-5-fluoro-4-hydroxyphenyl)-1H-indazol-3-yl)-5-propyl-4,5,6,7-tetrahydro-3H-imidazo[4,5-c]pyridin-6-yl)((1S,4S)-5-methyl-2,5-diazabicyclo-[2.2.1]heptan-2-yl)methanone]	inhibit IL-6 signaling	potently inhibit
